Results from patent US8569371B2, “Crystal forms of O-desmethylvenlafaxine fumarate” (Pliva Hrvatska D.O.O., priority 2010, dated 2013).

Test: Differential Scanning Calorimetry (DSC) comparison of crystal forms
Type: physicochemical
Conditions: comparison of DSC curves (FIG. 6); heating rate 10° C./min, 20-200° C.; melting 34° C. higher than Form I and 16° C. higher than Form II
Description: Differential Scanning Calorimetry (DSC) A. Equipment Instrument: TA Universal Analysis Q1000 Software: Universal Analysis 2000 B. Experimental Parameters Heating rate: 10° C./min Temperature range: 20-200° C. Sample size: 2.00-5.00 mg Purge gas: Nitrogen, 40 ml/min Crucible: Hermetic pinholed

thermal stability as compared to forms I and II: enhanced thermal stability
SMILES: CN(C)CC(c1ccc(O)cc1)C1(O)CCCCC1.O=C(O)/C=C/C(=O)O (stereo not shown) [O-Desvenlafaxine fumarate Form N, O-desmethylvenlafaxine fumarate]
